The values below are quoted from earlier work in patent US12569513B1, “Stable, highly pure L-cysteine compositions for injection and methods of use” (priority 2019, dated 2026).

Converted amounts (≈) assume the structure as drawn.

As usually defined, the solubility is the dissolved amount per volume that the medium holds. With `N[C@@H](CS)C(=O)O` [L-Cysteine, 2-Amino-3-sulfhydrylpropanoic acid], the solubility is on record as 50 mg/mL (≈ 413 mM).
